From ChEMBL document CHEMBL3137547, “Open Source Malaria Deposition 2. http://malaria.ourexperiment.org”

What follows are compounds tested on Plasmodium falciparum (assay: OSM: Erythrocyte assay. NF54 with 3H-Hypoxanthine at 72hr time point.).
Format: functional, organism-based

| Structure (SMILES) | EC50 [nM] |
| --- | --- |
| O=C(NC1CCc2cc(Cl)ccc21)c1cncc2nnc(-c3ccc(OC(F)F)cc3)n12 (configuration not stated) | 547 |
| Cc1nn(-c2ccc(F)cc2)c(C)c1-c1nnc2cncc(C(=O)Nc3ccnc(C(F)(F)F)c3)n12 | 10000 |
| Fc1ccc(C2(C(Oc3cncc4nnc(-c5ccc(OC(F)F)cc5)n34)C(F)(F)F)CC2)cc1F (configuration not stated) | 10000 |
| Cn1cc2ccc(Oc3cncc4nnc(-c5ccc(OC(F)F)cc5)n34)cc2n1 | 6200 |
| OC(COc1cncc2nnc(-c3ccc(OC(F)F)cc3)n12)c1ccc(F)c(F)c1 (configuration not stated) | 124 |
| [O-][n+]1cc(OCCc2ccc(F)c(F)c2)n2c(-c3ccc(OC(F)F)cc3)nnc2c1 | 4010 |
| Fc1ccc(CCOc2cnc(Cl)c3nnc(-c4ccc(OC(F)F)cc4)n23)cc1F | 160 |
| OCCc1cncc2nnc(-c3ccc(OC(F)F)cc3)n12 | 10000 |
| OCCC1CNCc2nnc(-c3ccc(OC(F)F)cc3)n21 (configuration not stated) | 8370 |
| Fc1ccc(N2CC(Oc3cncc4nnc(-c5ccc(OC(F)F)cc5)n34)C2)cc1F | 430 |
| FC(F)Oc1ccc(-c2nnc3cncc(N4CCC(c5ccccc5)C4)n23)cc1 (configuration not stated) | 2000 |
| O=C(NCc1cccc(Cl)c1)c1cncc2nnc(-c3ccc(OC(F)F)cc3)n12 | 250 |
| Fc1ccc(CCOc2cncc3nnc(C4CCOCC4)n23)cc1F | 10000 |
| FC(F)Oc1ccc(-c2nnc3n2CCNC3)cc1 | 10000 |
| CC(=O)N1CCC(c2nnc3cncc(OCCc4ccc(F)c(F)c4)n23)CC1 | 10000 |
| NCC(=O)N1CCn2c(nnc2-c2ccc(OC(F)F)cc2)C1 | 10000 |
| O=C(c1cncc2nnc(-c3ccc(OC(F)F)cc3)n12)N1Cc2ccccc2C1 | 10000 |
| O=C(NCc1ccc(Cl)cc1)c1cncc2nnc(-c3ccc(OC(F)F)cc3)n12 | 1340 |
| O=C(NCc1ccccc1Cl)c1cncc2nnc(-c3ccc(OC(F)F)cc3)n12 | 380 |
| O=C(NCC1CCOCC1)c1cncc2nnc(-c3ccc(OC(F)F)cc3)n12 | 10000 |
| Fc1ccc(CCOc2cncc3nnc(Nc4ccc(F)c(F)c4)n23)cc1F | 850 |
| Fc1ccc(OC2CN(c3cncc4nnc(-c5ccc(OC(F)F)cc5)n34)C2)cc1F | 4960 |
| Fc1ccc(CCOc2cncc3nnc(N4CCCCC4)n23)cc1F | 2630 |
| O=C(c1cncc2nnc(-c3ccc(OC(F)F)cc3)n12)N1CCN(c2ccccn2)CC1 | 10000 |
| O=C(NCCN1CCOCC1)c1cncc2nnc(-c3ccc(OC(F)F)cc3)n12 | 10000 |
| O=C(c1cncc2nnc(-c3ccc(OC(F)F)cc3)n12)N1CCOCC1 | 10000 |

| Structure (SMILES) | EC50 [nM] |
| --- | --- |
| C[C@H](NC(=O)c1cncc2nnc(-c3ccc(OC(F)F)cc3)n12)c1ccccc1 | 1600 |
| O=C(c1cncc2nnc(-c3ccc(OC(F)F)cc3)n12)N1CCCC1 | 10000 |
| CS(=O)(=O)N1CCN(C(=O)c2cncc3nnc(-c4ccc(OC(F)F)cc4)n23)CC1 | 10000 |
| C[C@@H](NC(=O)c1cncc2nnc(-c3ccc(OC(F)F)cc3)n12)c1ccccc1 | 1360 |
| O=c1[nH]cc(OCCc2ccc(F)c(F)c2)n2c(-c3ccc(OC(F)F)cc3)nnc12 | 4130 |
| O=C(Nc1ccccn1)c1cncc2nnc(-c3ccc(OC(F)F)cc3)n12 | 10000 |
| O=C(NCCc1ccccc1)c1cncc2nnc(-c3ccc(OC(F)F)cc3)n12 | 3170 |
| Fc1ccc(CCOc2cncc3nnc(N4Cc5ccccc5C4)n23)cc1F | 470 |
| CCN(CC)c1ncc(OCCc2ccc(F)c(F)c2)n2c(-c3ccc(OC(F)F)cc3)nnc12 | 6860 |
| O=S(=O)(Cc1ccc(C(F)(F)F)cc1)Nc1cncc2nnc(-c3ccc(OC(F)F)cc3)n12 | 10000 |
| O=C(c1cncc2nnc(-c3ccc(OC(F)F)cc3)n12)N1CCCC1c1ccccc1 (configuration not stated) | 3560 |
| CN(Cc1cccc(Cl)c1)C(=O)c1cncc2nnc(-c3ccc(OC(F)F)cc3)n12 | 1060 |
| FC(F)Oc1ccc(-c2nnc3cncc(CCCc4ccccc4)n23)cc1 | 280 |
| FC(F)Oc1ccc(-c2nnc3cncc(CCN4CCOCC4)n23)cc1 | 10000 |
| FC(F)Oc1ccc(-c2nnc3n2C(CCCc2ccccc2)CNC3)cc1 (configuration not stated) | 8760 |
| Nc1ncc(OCCc2ccc(F)c(F)c2)n2c(-c3ccc(OC(F)F)cc3)nnc12 | 10000 |
| FC(F)Oc1ccc(-c2nnc3cncc(CCN4Cc5ccccc5C4)n23)cc1 | 10000 |
| FC(F)Oc1ccc(-c2nnc3cncc(N4CC(c5ccccc5)C4)n23)cc1 | 10000 |
| Fc1ccc(COCc2cncc3nnc(-c4ccc(OC(F)F)cc4)n23)cc1F | 360 |
| Cc1ncc(OCCc2ccc(F)c(F)c2)n2c(-c3ccc(OC(F)F)cc3)nnc12 | 6920 |
| O=C(Nc1cccc(Cl)c1)c1cncc2nnc(-c3ccc(OC(F)F)cc3)n12 | 180 |
| O=C(NCc1ccc(F)c(F)c1)c1cncc2nnc(-c3ccc(OC(F)F)cc3)n12 | 280 |
| O=C(NCc1cncc2nnc(-c3ccc(OC(F)F)cc3)n12)c1cccc(Cl)c1 | 10000 |
| FC(F)Oc1ccc(-c2nnc3cncc(Oc4ccc(Cl)cc4)n23)cc1 | 2960 |
| CO[C@@H](COc1cncc2nnc(-c3ccc(C#N)cc3)n12)c1ccc(F)c(F)c1 | 40 |
| Fc1ccc(CCOc2cncc3ncc(-c4ccc(Cl)cc4)n23)cc1F | 110 |

| Structure (SMILES) | EC50 [nM] |
| --- | --- |
| FC(F)Oc1ccc(-c2nnc3cncc(CN4Cc5ccccc5C4)n23)cc1 | 110 |
| O=C(Nc1ccc(F)cc1)c1cncc2nnc(-c3ccc(OC(F)F)cc3)n12 | 3740 |
| O=C(Nc1ccc(F)c(F)c1)c1cncc2nnc(-c3ccc(OC(F)F)cc3)n12 | 650 |
| Fc1ccc(CCCc2cncc3nnc(-c4ccc(OC(F)F)cc4)n23)cc1F | 320 |
| O=C(Nc1ccc(Cl)cc1)c1cncc2nnc(-c3ccc(OC(F)F)cc3)n12 | 5000 |
| Fc1ccc2c(c1)CCN2c1nnc2cncc(OCCc3ccc(F)c(F)c3)n12 | 2050 |
| Fc1ccc(CCOc2cncc3cnc(-c4ccc(Cl)cc4)n23)cc1F | 830 |
| CN(C)[C@@H](COc1cncc2nnc(-c3ccc(OC(F)F)cc3)n12)c1ccc(F)c(F)c1 | 44.1 |
| Fc1ccc(C2(COc3cncc4nnc(-c5ccc(OC(F)F)cc5)n34)COC2)cc1F | 483 |
| N#Cc1ccc(-c2nnc3cncc(OCC(OC(F)F)c4ccc(F)c(F)c4)n23)cc1 (configuration not stated) | 16.7 |
| FC(F)Oc1ccc(-c2nnc3cncc(Oc4ccc5ccccc5c4)n23)cc1 | 115 |
| FC(F)Oc1ccc(-c2nnc3cncc(OCC(F)(F)F)n23)cc1 | 10000 |
| CN[C@@H](COc1cncc2nnc(-c3ccc(OC(F)F)cc3)n12)c1ccc(F)c(F)c1 | 10000 |
| FC(F)Oc1ccc(-c2nnc3cncc(Oc4ccc(C(F)(F)F)cc4)n23)cc1 | 383 |
| FC(F)Oc1ccc(-c2nnc3cncc(Oc4ccc(Cl)c(Cl)c4)n23)cc1 | 455 |
| O=C(Nc1ccc(F)c(Cl)c1)c1cncc2nnc(-c3ccc(OC(F)F)cc3)n12 | 191 |
| O=C(c1cncc2nnc(-c3ccc(OC(F)F)cc3)n12)N1CCc2cc(F)ccc21 | 10000 |
| FC(F)Oc1ccc(-c2nnc3cncc(Nc4ccc(Cl)c(Cl)c4)n23)cc1 | 9640 |
| FC(F)Oc1ccc(-c2nnc3cncc(Oc4cccc(Cl)c4)n23)cc1 | 3070 |
| Fc1ccc(CCOc2cncc3nnc(-c4ccc(C(F)(F)F)nc4)n23)cc1F | 262 |
| O=C(Nc1ccnc(C(F)(F)F)c1)c1cncc2nnc(-c3ccc(OC(F)F)cc3)n12 | 140 |
| Fc1ccc(CCOc2cn3c(-c4ccc(OC(F)F)cc4)nnc3cn2)cc1F | 33.8 |
| Fc1ccc(COc2cn3c(-c4ccc(OC(F)F)cc4)nnc3cn2)cc1F | 521 |
| OCC(COc1cncc2nnc(-c3ccc(OC(F)F)cc3)n12)c1ccc(F)c(F)c1 (configuration not stated) | 24.3 |
| Fc1ccc(CNc2cn3c(-c4ccc(OC(F)F)cc4)nnc3cn2)cc1F | 10000 |
| Fc1ccc(C(COc2cncc3nnc(-c4ccc(OC(F)F)cc4)n23)N2CCOCC2)cc1F (configuration not stated) | 613 |

| Structure (SMILES) | EC50 [nM] |
| --- | --- |
| CC(C)(C)c1ccc(Oc2cncc3nnc(-c4ccc(OC(F)F)cc4)n23)cc1 | 738 |
| FC(F)Oc1ccc(-c2nnc3cncc(Oc4ccc5c(c4)CCCC5)n23)cc1 | 2580 |
| FC(F)Oc1ccc(-c2nnc3cncc(Oc4ccc(Cl)c(C(F)(F)F)c4)n23)cc1 | 597 |
| N[C@@H](COc1cncc2nnc(-c3ccc(OC(F)F)cc3)n12)c1ccc(F)c(F)c1 | 278 |
| OC[C@H](Nc1cncc2nnc(-c3ccc(OC(F)F)cc3)n12)c1ccc(F)c(F)c1 | 570 |
| Fc1ccc(-c2cnn(-c3cncc4nnc(-c5ccc(OC(F)F)cc5)n34)c2)cc1F | 6720 |
| O=C(Nc1ccc(F)cc1Cl)c1cncc2nnc(-c3ccc(OC(F)F)cc3)n12 | 5580 |
| Fc1ccc(Nc2cn3c(-c4ccc(OC(F)F)cc4)nnc3cn2)cc1F | 10000 |
| O=C(NCc1cc(Cl)ccc1Cl)c1cncc2nnc(-c3ccc(OC(F)F)cc3)n12 | 332 |
| O=C(NCc1cccc(C(F)(F)F)c1Cl)c1cncc2nnc(-c3ccc(OC(F)F)cc3)n12 | 309 |
| Fc1ccc(Cc2nccn2-c2cncc3nnc(-c4ccc(OC(F)F)cc4)n23)cc1F | 10000 |
| Cc1nn(-c2ccc(F)cc2)c(C)c1-c1nnc2cncc(OCC(F)(F)F)n12 | 10000 |
| FC(F)Oc1ccc(-c2nnc3cncc(Oc4ccc(S(F)(F)(F)(F)F)cc4)n23)cc1 | 263 |
| Fc1ccc(Oc2cn3c(-c4ccc(OC(F)F)cc4)nnc3cn2)cc1F | 3450 |
| Fc1ccc(CCNc2cn3c(-c4ccc(OC(F)F)cc4)nnc3cn2)cc1 | 10000 |
| Cc1nn(-c2ccc(F)cc2)c(C)c1-c1nnc2cncc(Oc3ccc(Cl)c(Cl)c3)n12 | 10000 |
| Fc1ccc([C@H]2[C@@H](Oc3cncc4nnc(-c5ccc(OC(F)F)cc5)n34)CN2C2CC2)cc1F | 610 |
| O=C1[C@H](Oc2cncc3nnc(-c4ccc(OC(F)F)cc4)n23)[C@H](c2ccc(F)c(F)c2)N1C1CC1 | 1120 |
| Cn1ccc2cc(Oc3cncc4nnc(-c5ccc(OC(F)F)cc5)n34)ccc21 | 1980 |
| O=C1[C@@H](Oc2cn3c(-c4ccc(OC(F)F)cc4)nnc3cn2)[C@@H](c2ccc(F)c(F)c2)N1C1CC1 | 10000 |
| FC(F)Oc1ccc(-c2nnc3cncc(Oc4ccc5ccc(C(F)(F)F)nc5c4)n23)cc1 | 1630 |
| Cc1noc2cc(Oc3cncc4nnc(-c5ccc(OC(F)F)cc5)n34)ccc12 | 1930 |
| CC1=CC(C)(C)Oc2cc(Oc3cncc4nnc(-c5ccc(OC(F)F)cc5)n34)ccc21 | 1820 |
| Cn1ncc2ccc(Oc3cncc4nnc(-c5ccc(OC(F)F)cc5)n34)cc21 | 10000 |
